Measured values: patent US20240165089A1, “METHOD FOR TREATING MYOPIA WITH VINPOCETINE” (EYE HOSPITAL, WENZHOU MEDICAL UNIVERSITY, priority 2021, published 2024)
Where two headings read alike, the source gives them in different places.

How the values were obtained:
[1] = test system: choroid of FDM guinea pigs; assay: choroidal thickness and blood flow by OCTA, FDM group; format: in vivo, guinea pig
Experimental: (§1) The choroidal blood flow parameters and choroidal thickness were measured for the animals in the above FDM group after 1 week of continuous administration and at the end of the 2 week-administration experiment and for the animals in the LIM group at the end of the 7 day-administration experiment. Choroidal blood flow parameters and thickness were measured using a modified commercial OCTA (Spectralis HRA+OCT, OCTA, Heidelberg, Germany) which is more suitable for animal eyeballs. Before the measurement, the guinea pigs were fully anesthetized (a mixture of ketamine hydrochloride 60 mg/kg and xylazine hydrochloride 9 mg/kg, intraperitoneally injected), and then the guinea pig OCTA images were obtained, and the measurement results were quantified through a self-written program (MatLab R2017a, MathWorks). Real-time quantitative detection of choroidal blood flow and thickness in guinea pigs was achieved (Sen Zhang, Invest Ophthalmol Vis Sci. 2019 Jul. 1; 60(8):3074-3083).
(§2) Vinpocetine is known to improve blood circulation. The inventors used the method of example 1 to detect changes of indicator signals of choroidal thickness ChT and choroidal blood flow ChBP of FDM (1 week and 2 weeks of administration) and LIM (1 week of administration) at different time points during the administration cycle.

[2] = test system: choroid of LIM guinea pigs; assay: choroidal thickness and blood flow by OCTA, LIM group; format: in vivo, guinea pig; conditions: 1 week, vs solvent injection group
Experimental: as §1, §2

[3] = test system: lens induction myopia (LIM, −4D lens) guinea pig model; assay: lens induction myopia (LIM) guinea pig model, injection around the eyeball; format: in vivo
Text: (§3) The form deprivation and lens-induced guinea pig myopia model is a classic and recognized myopia animal model in the field. The model can be used to evaluate the efficacy and safety of drugs for treating myopia. The construction method of the model is well known to those skilled in the art. The animal modeling and administration route in this application refer to the scientific literature previously published by this research group (Sen Zhang, Invest Ophthalmol Vis Sci. 2019 Jul. 1; 60(8):3074-3083.; Miaozhen Pan, Exp Eye Res. 2021 January; 202:108332.), specifically, this application uses the following exemplary construction method of the form deprivation and lens-induced guinea pig myopia model:
(§4) three-week-old tricolor guinea pigs (both male and female, simulating humans aged 3-26 years old) were used and raised in the experimental animal room of Wenzhou Medical University in a 12-hour light (400-500 lux)/12-hour dark environment with free access to water and food. The myopia model adopted monocular form deprivation (FD) and lens induction (LI) modeling methods. […] In the lens induction group, a −4D lens was fixed in front of the right eye of the animal, and the left eye obtained normal vision. For the above animals, the lenses were cleaned twice a day to prevent the lenses from blurring. The animals in the experimental group were administrated at 9:00-9:30 am every day. […] The administration process for each animal was controlled in about 10 seconds. Administration began on the day of modeling, and was continuous for 2 weeks for the form deprivation group and was continuous for 1 week for the lens induction group. This experiment has been reviewed by the Experimental Animal Ethics Committee of Wenzhou Medical University.
(§5) The inventors prepared a 5 μM (i.e., 1.75 μg/mL) vinpocetine stock solution and stored at −80° C. The solvent was physiological saline. Before administration experiment, the stock solution was diluted with physiological saline to 1 μM, 0.1 μM, and 0.01 μM, respectively. During the formulation process of vinpocetine eye drops, the solubility can be increased by using conventional physical methods such as heating and stirring, or acids can also be used to adjust the PH value to increase solubility, and finally, the PH value can be adjusted to 7.31.
2. Lens induction plus drug injection group: • wearing a −4D lens on one eye and injecting vinpocetine (0.01 μM: 0.1 mL/day) into the eye wearing the −4D lens for 1 weeks, sample size=12; • wearing a −4D lens on one eye and injecting vinpocetine (0.1 μM: 0.1 mL/day) into the eye wearing the −4D lens for 1 weeks, sample size=12; • wearing a −4D lens on one eye and injecting vinpocetine (1.00 μM 0.1 mL/day) into the eye wearing the −4D lens for 1 weeks, sample size=13; • 3.
(§6) All animals in the same model efficacy experiment were measured within the same time period, and the first measurement was at 3 weeks of age, that is, before drug administration. Refractions and eyeball parameters were measured for the animals in the above FDM group before the experiment, after 1 week of administration in the experiment and after 2 weeks of administration in the experiment and for the animals in the LIM group before the experiment, after 3 days of administration in the experiment and after 7 days of administration in the experiment, respectively. The refractions were measured using an eccentric infrared photoretinoscope (EIR) built in our laboratory. Each eye was measured three times and the average was taken as the final result. The axial parameters of the guinea pig's eyeballs were measured using the A-ultrasound probe in the CinescanA/B ultrasonic diagnostic instrument (QuantelMedical, Aviso, France). The ultrasonic frequency was 11 MHz. The ultrasonic propagation speeds of different refractive media of the eyeball were set as: 1557.5 m/s for the anterior chamber, 1723.3 m/s for the lens, and 1540 m/s for the vitreous body.

rats = conditions: rat, in vivo, cited from earlier work
[4] = test system: form deprivation myopia (FDM) guinea pig model; assay: form deprivation myopia (FDM) guinea pig model, injection around the eyeball; format: in vivo
Text: as §3, §4, §5
2. Form deprivation plus drug injection group: • wearing an eye mask on one eye and injecting vinpocetine (0.01 μM: 0.1 mL/day) into the eye wearing the eye mask for 2 weeks, sample size=15; • wearing an eye mask on one eye and injecting vinpocetine (0.1 μM: 0.1 mL/day) into the eye wearing the eye mask for 2 weeks, sample size=20; • wearing an eye mask on one eye and injecting vinpocetine 1.00 μM: 0.1 mL/day) into the eye wearing the eye mask for 2 weeks, sample size=22; • 3.
as §6

[5] = vinpocetine 1 μM, 1 week, vs vehicle

CCOC(=O)C1=C[C@]2(CC)CCCN3CCc4c(n1c1ccccc41)[C@@H]32 [vinpocetine]
choroidal thickness ChT ([1]; 1 and 2 weeks, vs solvent injection group, not statistically significant): only slightly increased
choroidal blood perfusion ChBP ([1]; 1 and 2 weeks, vs solvent injection group, p=0.285): only slightly increased
effect on choroidal vasodilation compared with atropine ([1]; vinpocetine 0.1 μM, 2 weeks): not as good as atropine
improvement of choroidal blood flow among vinpocetine concentrations ([1]; vinpocetine 1 μM, 1 week): least effective at improving choroidal blood flow
choroidal thickness ChT ([2]; not statistically significant): only slightly increased
choroidal blood perfusion ChBP ([2]; p=0.766): only slightly increased
effect of myopia treatment compared with the negative control group ([3]; high-, medium- and low-concentration vinpocetine (1, 0.1, 0.01 μM), 3 days): showed the effect of myopia treatment
refraction difference between the experimental eye and the contralateral eye ([3]; vinpocetine 1 μM 0.1 mL/day peribulbar injection, 3 days): −2.00±0.82 D
axial length difference between the experimental eye and the contralateral eye ([3]; vinpocetine 1 μM, 3 days): 0.04±0.02 mm
inhibition rate for the axial length ([3]; vinpocetine 1 μM, 3 days): 55.5%
inhibition rate for the vitreous chamber depth ([3]; vinpocetine 1 μM, 3 days): 58.8%
refraction inhibition rate ([3]; vinpocetine 1 μM, 3 days): 38.5%
vitreous chamber depth difference between the experimental eye and the contralateral eye ([3]; vinpocetine 1 μM, 3 days): 0.03±0.03 mm
axial length difference between the experimental eye and the contralateral eye ([3]; vinpocetine 1 μM, 7 days): 0.05±0.02 mm
inhibition rate for the axial length ([3]; vinpocetine 1 μM, 7 days): 53.8%
inhibition rate for the vitreous chamber depth ([3]; vinpocetine 1 μM, 7 days): 49.8%
refraction difference between the experimental eye and the contralateral eye ([3]; vinpocetine 1 μM, 7 days): −2.61±1.17 D
refraction inhibition rate ([3]; vinpocetine 1 μM, 7 days): 36.3%
vitreous chamber depth difference between the experimental eye and the contralateral eye ([3]; vinpocetine 1 μM, 7 days): 0.05±0.02 mm
toxicity findings (rats; 20 mg/kg/day): no obvious abnormality
toxicity findings (rats; 40 mg/kg): signs of weight loss and food intake reduction
LD50 (rats; po): approximately 500 mg/kg
refraction change towards negative and vitreous chamber depth elongation compared with the negative control group ([4]; low-concentration vinpocetine 0.01 μM, two time points, no statistical difference): showed an inhibitory trend
refraction difference between the experimental eye and the contralateral eye ([4]; vinpocetine 1 μM 0.1 mL/day peribulbar injection, 1 week): −2.44±1.88 D
axial length difference between the experimental eye and the contralateral eye ([4]; vinpocetine 1 μM, 1 week): 0.07±0.05 mm
vitreous chamber depth difference between the experimental eye and the contralateral eye ([4]; vinpocetine 1 μM, 1 week): 0.06±0.05 mm
inhibition rate for the axial length [4, 5]: 39.8%
inhibition rate for the vitreous chamber depth [4, 5]: 45.0%
refraction inhibition rate [4, 5]: 50.5%
axial length difference between the experimental eye and the contralateral eye ([4]; vinpocetine 1 μM, 2 weeks): 0.08±0.05 mm
inhibition rate for the axial length ([4]; vinpocetine 1 μM, 2 weeks): 48.2%
inhibition rate for the vitreous chamber depth ([4]; vinpocetine 1 μM, 2 weeks): 43.4%
refraction difference between the experimental eye and the contralateral eye ([4]; vinpocetine 1 μM, 2 weeks): −3.36±2.21 D
refraction inhibition rate ([4]; vinpocetine 1 μM, 2 weeks): 50.1%
vitreous chamber depth difference between the experimental eye and the contralateral eye ([4]; vinpocetine 1 μM, 2 weeks): 0.09±0.05 mm
